# Assay results from patent US6979732B1, “Polynucleotide compositions encoding S-adenosyl-L-methionine:phosphoethanolamine N-methyltransferase and methods for modulating lipid biosynthesis in plants” (University of Florida, priority 2000, dated 2005).
# T1: PEAMT (Spinacia oleracea, UniProt Q9M571)
# T1 construct: The PEAMT cDNA comprises a 494-residue open reading frame; made in house; host or cells: Schizosaccharomyces pombe Bx22 (leu1 cho2-) carrying pREP3-PEAMT; desalted crude extract, not purified
# T1 sequence (Q9M571 1-494): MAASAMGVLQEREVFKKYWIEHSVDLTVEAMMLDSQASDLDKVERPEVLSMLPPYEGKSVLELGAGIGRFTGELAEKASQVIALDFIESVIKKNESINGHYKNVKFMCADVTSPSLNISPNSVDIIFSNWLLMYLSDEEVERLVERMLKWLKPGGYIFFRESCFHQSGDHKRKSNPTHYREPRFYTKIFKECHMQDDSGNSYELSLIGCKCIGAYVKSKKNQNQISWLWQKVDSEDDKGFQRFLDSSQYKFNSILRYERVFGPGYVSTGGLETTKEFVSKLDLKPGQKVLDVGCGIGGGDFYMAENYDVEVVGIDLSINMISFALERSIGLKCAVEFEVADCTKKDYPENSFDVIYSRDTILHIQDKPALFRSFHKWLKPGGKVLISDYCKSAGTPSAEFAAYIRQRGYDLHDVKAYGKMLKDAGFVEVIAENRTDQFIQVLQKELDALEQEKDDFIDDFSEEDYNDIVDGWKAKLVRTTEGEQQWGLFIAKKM
# T2: ΔPEAMT (Spinacia oleracea, UniProt Q9M571)
# T2 construct: made in house; host or cells: Schizosaccharomyces pombe Bx22 (leu1 cho2-) carrying pREP3-ΔPEAMT; desalted crude extract, not purified
# T2 sequence (Q9M571 with tags, fused parts or gaps): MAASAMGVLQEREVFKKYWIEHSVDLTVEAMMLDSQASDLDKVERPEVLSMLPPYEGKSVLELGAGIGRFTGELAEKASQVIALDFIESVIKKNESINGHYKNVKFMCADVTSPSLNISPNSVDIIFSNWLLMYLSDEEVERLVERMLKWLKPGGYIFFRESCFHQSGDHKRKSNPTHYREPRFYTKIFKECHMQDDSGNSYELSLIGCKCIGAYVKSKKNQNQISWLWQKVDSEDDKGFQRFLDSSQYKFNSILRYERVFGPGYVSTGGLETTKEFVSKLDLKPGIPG
# B1: ΔPEAMT: truncated spinach PEAMT; native coding sequence terminates at Gly-286, plus Ile Pro Gly; SEQ ID NO:4 (protein, listed as Spinacia oleracea)
# chain: T2 sequence (Q9M571 with tags, fused parts or gaps)
# B2: PEAMT (Spinacia oleracea) (protein)
# chain: T1 sequence (Q9M571 1-494)
# notes: The PEAMT cDNA comprises a 494-residue open reading frame; made in house; host or cells: Schizosaccharomyces pombe Bx22 (leu1 cho2-) carrying pREP3-PEAMT; desalted crude extract, not purified
# Legend:
# PEAMT [1] = molecular target: T1, PEAMT; assay: PEAMT activity assay with extracts of S. pombe Bx22 cells expressing recombinant wild type PEAMT; type: biochemical; settings: for inhibition of PEAMT activity (in words): metabolite at 2 mM
# Protocol: Cells were grosn to an OD600 of ≈1 in 50 ml of medium at 30° C., shaking at 250 rpm. […] Subsequent operations were at 0-4° C. Cells were harvested by centrifugation (5000×g, 10 min), washed twice with water and once with 100 mM HEPES-KOH, pH 7.8, resuspended in 0.5 ml of lysis buffer (100 mM HEPES-KOH, pH 7.8, 2 mM Na2EDTA, 5 mM dithiothreitol, 10% glycerol) and transferred to 2-ml microfuge tubes containing ≈1.5 g of acid-washed glass beads (425-600 μm). Cells were broken by vortexing at maximum speed for 2 min. The brei was centrifuged (16,000×g, 2 min), the supernatant was removed and the beads were washed with 3×1 ml of lysis buffer. The combined supernatants were clarified by centrifugation (16,000×g, 15 min) and desalted on a PD-10 column (Amersham Pharmacia Biotech, Piscataway, N.J.) equilibrated with storage buffer (10 mM HEPES-KOH, pH 7.8, 2 mM Na2EDTA, 5 mM dithiotreitol, 10% glycerol). The extract was aliquotted, frozen in liquid N2 and stored at […]. Spinach leaf extracts were prepared as described (Summers and […], 1993). Protein was determined using the Bio-Rad dye reagent (Hercules, Calif.). Native molecular mass was estimated using a Waters 626 HPLC system (Milford, Mass.) equipped with a Superdex 200 HR 10/30 column (Amersham Pharmacia Biotech) as described ([…] al., 1995). PEAMT activity was measured by a modification of published methods (Datko and Mudd, 1988b; Summers and […], 1993), under conditions in which product formation was proportional to enzyme concentration and time. […] Reactions were stopped by adding 1 ml of ice-cold water; each was applied to a 1-ml AG-50 (HR^+) column held at 4° C. and the assay tube was rinsed with 1 ml of water, which was also applied to the column. Products were eluted with 10 ml of 0.1 N HCl, and 2 ml of the eluate was mixed with 3 ml of Ready Gel scintillation fluid (Beckman, Palo Alto, Calif.) and counted. For assay blanks, enzyme was omitted during incubation and added just before the ion exchange step.
# ΔPEAMT = molecular target: T2, ΔPEAMT; assay: PEAMT activity assay with extracts of S. pombe Bx22 cells expressing truncated ΔPEAMT; type: biochemical
# Protocol: The plasmid encoding PEAMT, designated pREP3-PEAMT, was digested with BamHI and end-polished with T4 DNA polymerase. The 3'-sequence of PEAMT was removed by digestion with MscI; the remaining sequence plus vector was gel-purified and religated to give ΔPEAMT. In ΔPEAMT the native coding sequence terminates at […], and the pREP3 polylinker adds the sequence […] to the carboxyl-terminus. Cells were grosn to an OD600 of ≈1 in 50 ml of medium at 30° C., shaking at 250 rpm. […] Subsequent operations were at 0-4° C. Cells were harvested by centrifugation (5000×g, 10 min), washed twice with water and once with 100 mM HEPES-KOH, pH 7.8, resuspended in 0.5 ml of lysis buffer (100 mM HEPES-KOH, pH 7.8, 2 mM Na2EDTA, 5 mM dithiothreitol, 10% glycerol) and transferred to 2-ml microfuge tubes containing ≈1.5 g of acid-washed glass beads (425-600 μm). Cells were broken by vortexing at maximum speed for 2 min. The brei was centrifuged (16,000×g, 2 min), the supernatant was removed and the beads were washed with 3×1 ml of lysis buffer. The combined supernatants were clarified by centrifugation (16,000×g, 15 min) and desalted on a PD-10 column (Amersham Pharmacia Biotech, Piscataway, N.J.) equilibrated with storage buffer (10 mM HEPES-KOH, pH 7.8, 2 mM Na2EDTA, 5 mM dithiotreitol, 10% glycerol). The extract was aliquotted, frozen in liquid N2 and stored at […]. Spinach leaf extracts were prepared as described (Summers and […], 1993). Protein was determined using the Bio-Rad dye reagent (Hercules, Calif.). Native molecular mass was estimated using a Waters 626 HPLC system (Milford, Mass.) equipped with a Superdex 200 HR 10/30 column (Amersham Pharmacia Biotech) as described ([…] al., 1995). PEAMT activity was measured by a modification of published methods (Datko and Mudd, 1988b; Summers and […], 1993), under conditions in which product formation was proportional to enzyme concentration and time. […] Products were eluted with 10 ml of 0.1 N HCl, and 2 ml of the eluate was mixed with 3 ml of Ready Gel scintillation fluid (Beckman, Palo Alto, Calif.) and counted. […]
# PEAMT [2] = molecular target: T1, PEAMT; assay: AdoMet:Ptd-EA N-methyltransferase activity assay of the complemented strain; type: biochemical; settings: complemented strain extract
# Protocol: (§1) AdoMet:EA N-methyltransferase activity was assayed as above except that reactions contained 200 nmol EA and 160 nmol (40 nCi) of [methyl-^14C]AdoMet. The [methyl-^14C]AdoMet was removed by treating with activated charcoal and centrifuging (Cook and Wagner, 1984), and ^14C-incorporation into freebase products was measured by counting a sample of the supernatant. […] For assay blanks, EA was omitted. AdoMet:Ptd-EA N-methyltransferase activity was measured essentially as described (Datko and Mudd, 1988b). Assays (final volume 100 μl) contained 9 μl 10X assay buffer, 0.8 nmol (47 nCi) [methyl-^14C]AdoMet, 10 μl of a Ptd-EA emulsion in 1× assay buffer (10 mg ml^−1, sonicated for 3×30 sec), and enzyme extract; incubation was for 30 min at 30° C. The phospholipid fraction was isolated for ^14C quantification as described (Datko and Mudd, 1988b) except that the methanol:chloroform:water proportions were 12:5:1 (vol./vol./vol.). Data were corrected for the ^14C incorporation in control assays containing extract from Bx22 cells.
# PEAMT [3] = molecular target: T1, PEAMT; assay: AdoMet:EA N-methyltransferase activity assay of the complemented strain; type: biochemical; settings: complemented strain extract
# Protocol: as §1
# [4] = substrate: NCCOP(=O)(O)O; assay: PEAMT activity assay with extracts of S. pombe Bx22 cells expressing recombinant wild type PEAMT; type: biochemical, Spinacia oleracea; settings: other: recombinant PEAMT, substrate
# Protocol: Cells were grosn to an OD600 of ≈1 in 50 ml of medium at 30° C., shaking at 250 rpm. […] Subsequent operations were at 0-4° C. Cells were harvested by centrifugation (5000×g, 10 min), washed twice with water and once with 100 mM HEPES-KOH, pH 7.8, resuspended in 0.5 ml of lysis buffer (100 mM HEPES-KOH, pH 7.8, 2 mM Na2EDTA, 5 mM dithiothreitol, 10% glycerol) and transferred to 2-ml microfuge tubes containing ≈1.5 g of acid-washed glass beads (425-600 μm). Cells were broken by vortexing at maximum speed for 2 min. The brei was centrifuged (16,000×g, 2 min), the supernatant was removed and the beads were washed with 3×1 ml of lysis buffer. The combined supernatants were clarified by centrifugation (16,000×g, 15 min) and desalted on a PD-10 column (Amersham Pharmacia Biotech, Piscataway, N.J.) equilibrated with storage buffer (10 mM HEPES-KOH, pH 7.8, 2 mM Na2EDTA, 5 mM dithiotreitol, 10% glycerol). […] Protein was determined using the Bio-Rad dye reagent (Hercules, Calif.). […] PEAMT activity was measured by a modification of published methods (Datko and Mudd, 1988b; Summers and […], 1993), under conditions in which product formation was proportional to enzyme concentration and time. […] Products were eluted with 10 ml of 0.1 N HCl, and 2 ml of the eluate was mixed with 3 ml of Ready Gel scintillation fluid (Beckman, Palo Alto, Calif.) and counted. […]
# [5] = 3-hr incubation, small quantity of P-EA, 5-fold excess of [methyl-14C]AdoMet
molecule,measurement,setting,value
"C[N+](C)(C)CCOP(=O)([O-])O [P-Cho, phosphocholine]",reduction of PEAMT activity,"PEAMT [1]; 2 mM P-Cho, 50 nmol P-EA, 170 nmol [methyl-14C]AdoMet, 10 min",80%
same,inhibition at 10000 µM,"PEAMT [1]; 10 mM P-Cho, saturating P-EA concentration, read-out: reduction (inhibition) of PEAMT activity",95%
same,sensitivity of ΔPEAMT to P-Cho compared with the wild-type enzyme,"ΔPEAMT; 10 mM P-Cho, P=0.05",retaining twice as much of its initial activity
"C[S+](CC[C@H](N)C(=O)[O-])C[C@H]1O[C@@H](n2cnc3c(N)ncnc32)[C@H](O)[C@@H]1O (stereo partly drawn) [AdoMet, S-adenosyl-L-methionine]",Km,"PEAMT [1]; recombinant PEAMT, substrate",140 µM
CNCCO [MME],inhibition of PEAMT activity (in words),PEAMT [1],not inhibitory
"C[N+](C)(C)CC(=O)[O-] [GlyBet, glycine betaine]",inhibition of PEAMT activity (in words),PEAMT [1],not inhibitory
phosphatidylethanolamine [Ptd-EA],activity with Ptd-EA as substrate,PEAMT [2],< 1 pkat mg^−1 protein
CN(C)CCO [DME],inhibition of PEAMT activity (in words),PEAMT [1],not inhibitory
S-adenosyl-L-methionine:phosphoethanolamine N-methyltransferase [PEAMT],PEAMT activity in the absence of P-Cho,"PEAMT [1]; 25 μg protein, 10 min, 50 nmol P-EA, 170 nmol AdoMet",737±18 pkat mg^−1 protein
same,reaction product,PEAMT [1]; [5],almost solely [^14C]P-Cho
same,specific activity of PEAMT in extracts of complemented cells relative to spinach leaves,PEAMT [1]; FIG. 2A,up to 80 fold
same,pH optimum of PEAMT activity,PEAMT [1]; recombinant PEAMT,8.1-8.5
"NCCO [EA, ethanolamine]",activity with EA as substrate,PEAMT [3],< 1 pkat mg^−1 protein
B1,PEAMT activity in the absence of P-Cho,"ΔPEAMT; 50 μg protein, 10 min, 50 nmol P-EA, 170 nmol AdoMet",200±10 pkat mg^−1 protein
same,reaction product,ΔPEAMT; [5],only [^14C]P-MME
B2,Km,[4],96 µM
